Common to all, as to test: NCI tumour cell line growth inhibition, 48 h
In test [1] the test system is T-47D breast.
Test [2] relates to 786-0 renal.
Test [3] has as its system ACHN renal.
Test [4] relates to HL-60(TB) leukemia.
Test [5] relates to DU-145 prostate.
Test [6] deals with SF-295 CNS.
Test [7] deals with U251 CNS.
The subject of test [8] is SK-MEL-5 melanoma.
Test [9] has as its system PC-3 prostate.
For test [10], the system named is HCC-2998 colon.
For test [11], the system named is NCI-H226 lung.
Test [12] has as its system SNB-75 CNS.

28 compounds from PubChem BioAssay (NCI) can be followed below.

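Each compound was tested at five concentrations against cells in 96-well plates for 48 hours. At the TGI there is no net growth.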

Turning to `CC(=O)O[C@H]1C(=O)[C@@]2(C)[C@H]([C@H](OC(=O)c3ccccc3)[C@]3(O)C[C@H](OC(=O)[C@H](O)[C@@H](NC(=O)c4ccco4)c4ccccc4)C(C)=C1C3(C)C)[C@]1(OC(C)=O)CO[C@@H]1C[C@@H]2O`, the TGI in test [1] is more than 12.5 µM; in [2], more than 12.5 µM; in test [3], more than 12.5 µM; in [4], less than 0.00125 µM; in [5], more than 12.5 µM; in test [6], more than 12.5 µM. Besides, the TGI in [7], in [8] and in test [9] was more than 12.5 µM throughout.
For `Clc1ccc(CCN[C@H]2CCCC[C@H]2N2CCCC2)cc1Cl`, the TGI in test [2] is 77 µM; in [3] it was more than 100 µM; in [4], 50 µM; in [5], 59.8 µM; in test [6] it was 30.2 µM; in test [7] it was more than 100 µM. Besides, the TGI in test [8] is 28.5 µM; in test [9] it was more than 100 µM; in [10], 22.3 µM; in test [11] it was 48.7 µM.
Regarding `CSc1ccc(Nc2cc(=O)[nH]c(=O)[nH]2)cc1`, the TGI in [1], in [2], in test [3], in [4], in [5] and in test [6] was more than 100 µM each time. Moreover, the TGI in test [7], in test [8], in test [9], in test [10] and in [11] was more than 100 µM each time.
For the compound `CC(=O)OCC(=O)OC[C@H](OCc1ccccc1)[C@@H]1[C@H](OC(C)=O)C(=O)N1Cc1ccccc1`, the TGI in test [2], in [3], in test [5], in test [6], in test [7] and in [8] was more than 100 µM throughout. The TGI in [12], in test [9] and in [11] was more than 100 µM each time.
Consider `S=c1ncc2c([nH]1)C1c3ccccc3C2c2ccccc21`, for which the TGI in [2] is more than 100 µM; in [3] it was more than 100 µM; in test [4], 70.3 µM; in [6] it was more than 100 µM; in test [7], more than 100 µM; in [8], more than 100 µM. Besides, the TGI was 77.2 µM in test [12] and more than 100 µM in [11].
As for `OC(CN(CCCl)CCCl)C(O)C(O)C(O)CN(CCCl)CCCl` (stereo unspecified), the TGI in [1] is more than 100 µM; in test [2] it was more than 100 µM; in test [3], 17.3 µM; in test [4] it was more than 100 µM; in test [5] it was more than 100 µM; in test [7] it was more than 100 µM. Moreover, the TGI in test [8], in test [9], in test [10] and in test [11] was more than 100 µM each time.
As for `CC(C)C1NC(=O)CC(c2ccccc2)N(N=O)C1c1ccccc1` (stereo unspecified), the TGI in test [4], in [6], in [7], in test [8], in test [12] and in test [10] was more than 100 µM each time. In test [11], this compound came in with a TGI of more than 100 µM.
Take `COC(=O)/C=C1/OC(c2ccccc2)=C(C)C1=O`: the TGI in test [1] was 42.7 µM; in test [2], 22.3 µM; in test [3], 25.7 µM; in test [4], 4.97 µM; in test [5] it was 33.6 µM; in test [6], 26.1 µM. The TGI in test [7] turned out to be 27.1 µM; in [8], 34.2 µM; in [12], 43 µM; in test [10] it was 30.2 µM; in test [11] it was 38.6 µM.
On to `CCOC(=O)c1c(NC(=S)Nc2ccc(Cl)cc2)sc2c1CCN(C)C2`, for which the TGI in [1], in [2], in [3], in test [4], in test [5] and in test [6] was more than 100 µM in each case. In addition, the TGI in test [8], in test [9] and in test [11] was more than 100 µM in each case.
Regarding `CN(CCCNC(=O)c1cn(C)c2c1Cc1ccccc1-2)CCCNC(=O)c1cn(C)c2c1Cc1ccccc1-2`, the TGI in test [2] was found to be 17.9 µM; in test [3] it was 22.9 µM; in [4], 28.6 µM; in [6], 26.2 µM; in test [7] it was 20.2 µM; in test [8] it was 28.4 µM. For the same compound, the TGI in [9] was 22.7 µM; in [11], 41.4 µM.
For `Cn1c2ccccc2c(=O)c2c(O)cc3c(c21)C=CC(C)(C)O3`, the TGI in test [4] is more than 20.1 µM; in [6], more than 25 µM; in test [7], more than 25 µM; in [8] it was more than 25 µM; in test [12], 24.9 µM; in test [10] it was more than 25 µM. Moreover, in test [11], the TGI is more than 25 µM.
Take `CSc1nc2c(c(=O)n1C)N=C(c1ccc([N+](=O)[O-])cc1)CC(c1ccccc1)N2` (stereo unspecified): the TGI in test [2] is more than 100 µM; in [3], more than 100 µM; in [4], 65.9 µM; in test [5] it was more than 100 µM; in test [6], more than 100 µM; in test [7], more than 100 µM. For the same compound, the TGI in test [8], in test [12], in [9], in [10] and in [11] was more than 100 µM in each case.
For the compound `O=C(c1ccc(Cl)cc1)c1ccc(OCCCOc2ccc(C(=O)c3ccc(Cl)cc3)cc2Cl)c(Cl)c1`, the TGI in test [2], in test [3], in test [4], in test [6], in test [7] and in [8] was more than 100 µM each time. The TGI in test [12], in test [10] and in test [11] was more than 100 µM in each case.
For the compound `COc1cc(C2(c3ncc[nH]3)SSSCC2O)ccc1O` (stereo unspecified), the TGI is more than 67.9 µM in test [4]; more than 100 µM in test [6]; more than 100 µM in [7]; more than 100 µM in [8]; more than 100 µM in test [12]; 77 µM in test [10]. The TGI in test [11] is more than 100 µM.
Take `O=C(CSCC(=O)N/N=C\c1cccc([N+](=O)[O-])c1)N/N=C\c1cccc([N+](=O)[O-])c1`: the TGI in test [1] is more than 100 µM; in [2], 63.6 µM; in test [3], 33.7 µM; in test [4], more than 100 µM; in test [5], more than 100 µM; in [6] it was 30.5 µM. Moreover, the TGI in test [7] was 32.4 µM; in test [8], more than 100 µM; in test [12], 65.6 µM; in test [10], more than 100 µM; in test [11] it was more than 100 µM.
`Cc1cccc2sc(-c3ccc(O)cc3)nc12`: the TGI in test [3] was 33 µM; in [4], 40.8 µM; in test [5], 31.6 µM; in [6], 29.1 µM; in test [7], 39.1 µM; in [8] it was 20.6 µM. In addition, the TGI is 26.2 µM in [12], 31.7 µM in [9] and 34.6 µM in [11].
For the compound `CCCCCc1c(CCCC)c(=O)[nH]c2nc(NC(=O)CCCC)ccc12`, the TGI in test [1], in [2], in test [3], in [6], in [7] and in test [8] was more than 100 µM in each case. The TGI in [12], in [9], in [10] and in test [11] was more than 100 µM each time.
`COc1nc(N)c(NC(C)=O)c(=O)n1C`: the TGI in [3], in test [4], in test [6], in test [7], in test [12] and in test [10] was more than 100 µM each time.
Turning to `CC1CCC2CC(=O)OC([C@@H]3C(=O)O[C@@H](C4=CCCC4)C4C(C)CCC43)C12` (stereo partly specified), the TGI is more than 100 µM in test [2]; more than 100 µM in test [3]; 65.1 µM in test [4]; more than 100 µM in test [6]; more than 100 µM in test [7]; more than 100 µM in [8]. Also, the TGI in test [12], in [10] and in [11] was more than 100 µM throughout.
On to `CCCCCCCCCOCC(COP(=O)([O-])OCC[N+](C)(C)C)OC` (stereo unspecified), for which the TGI in test [4], in test [6], in test [7], in [8], in [12] and in test [10] was more than 100 µM each time. For the same compound, the TGI in [11] is more than 100 µM.
`C/C=C1\CN2CCc3c([nH]c4ccccc34)C2CC1CCO` (stereo unspecified): the TGI in test [2], in [3], in [4], in test [6], in [7] and in test [8] was more than 100 µM in each case. Also, the TGI in [12], in [10] and in test [11] was more than 100 µM throughout.
Turning to `COc1ccc(OC)c2c1C=CC(Br)=CC2`, the TGI is 0.681 µM in [1]; 0.544 µM in [2]; more than 1 µM in [3]; more than 1 µM in [5]; 0.373 µM in test [6]; more than 1 µM in [7]. In addition, the TGI in test [8] is more than 1 µM; in [9], more than 1 µM; in [10], 0.449 µM; in [11] it was more than 1 µM.
With `CCOC(=O)CC(NC(=O)c1[nH]cnc1/N=N/N(C)C)C(=O)OCC` (stereo unspecified), the TGI in test [2], in [3], in test [4], in [6], in test [7] and in test [8] was more than 100 µM throughout. Also, the TGI in test [12], in test [10] and in test [11] was more than 100 µM in each case.
On to `COc1ccc(-c2c3c(n(C4OC(CO)C(O)C(O)C4O)c(=S)c2C#N)CCCC3)cc1` (stereo unspecified), for which the TGI in test [1], in [2], in test [3], in test [4], in test [6] and in [8] was more than 100 µM throughout. The TGI in [12] is 18.7 µM; in test [9], more than 100 µM; in test [10], more than 100 µM; in [11], more than 100 µM.
Regarding `CC1C2C=C(O)C(=O)C(C2=O)C1c1ccccc1` (stereo unspecified), the TGI in test [2], in test [3], in test [6], in test [7], in test [8] and in [12] was more than 100 µM each time. Besides, the TGI in test [10] and in test [11] was more than 100 µM throughout.
Consider `Fc1ccc2c3c([nH]c2c1)CCN(Cc1ccccc1)C3`, for which the TGI in test [1] came to 47.3 µM; in [2], 30 µM; in [3], 47.3 µM; in test [4], 37.6 µM; in [5] it was 70.9 µM; in test [6], 27.9 µM. In addition, the TGI in test [7] turned out to be 37.1 µM; in test [8], 38.8 µM; in [12], 32.9 µM; in [10], 26 µM; in test [11], 39.5 µM.
For `Cc1c(N=C/C=C/c2ccccc2)c(=O)n(-c2ccccc2)n1C`, the TGI was 62.4 µM in test [1]; more than 100 µM in [3]; 48.2 µM in [4]; more than 100 µM in test [5]; 40.6 µM in test [6]; 73.3 µM in [7]. Besides, the TGI in [8] is 31 µM; in [9] it was more than 100 µM; in test [11], 38 µM.
Take `CSCSCC(CO)NC(=O)/C(C)=C\c1c(C)[nH]c(=O)[nH]c1=O` (stereo unspecified): the TGI in test [4], in test [6], in [7], in [8], in test [12] and in test [10] was more than 250 µM in each case. In [11], this compound yielded a TGI of more than 250 µM.
